Test results as given in patent US20240173316A1, “Methods and Compositions for Treating Cancer” (Ohio Northern University, priority 2022, published 2024).

Assays:
[1] = target: RGS4-Galpha-q interaction (Homo sapiens (Human), UniProt P49798); test: NanoBit RGS/Gα cell-based protein-protein interaction assay, RGS4; conditions: for IC50: inhibition of RGS4-Galpha-q interaction, read-out: RGS4 IC50 μM (95% Cl)
Protocol: (§1) The NanoBit cell-based assay was performed as previously described. The NanoBit substrate (NanoGlo Live Cell Reagent) was prepared as a 5× stock, per the manufacture's protocol, and added to the wells at 10 μL per well. Post substrate addition, a baseline signal was established for 30 minutes using a BioTek Synergy 2 plate reader in luminescent mode. Post baseline read 10 μL of vehicle (Hank's Balanced Salt solution+20 mM HEPES) or AlF4 (stock solution: 40 mM NaF, 500 μM AlCl3) was added and luminescence was measured for an additional 30 minutes. Lastly, 4× compound or vehicle (DMSO) was added to the appropriate wells, and the plate was read for an additional hour. Data presented represents the mean of N=3 independent experiments±S.E.M. All data analysis was completed in GraphPad Prism 7 and 8.
(§2) All selected compounds were purchased and tested for their ability to inhibit RGS2-Galpha-q interaction in NanoBit assays. The same assay was also used to test the compounds' ability to inhibit RGS4-Galpha-q interaction as a measure of selectivity. RGS4 was not part of the docking calculations performed here because no structure is available for the human RGS4. It was used in the assays, nonetheless, to test for the validity of our docking approach to selectivity and binding.

NCI 60 cell panel = test: NCI 60 Cell One-Dose Screen; format: cell-based, human; conditions: single high dose 10^−5 M; leukemia, NSCLC, colon, CNS, melanoma, ovarian, renal, prostate, breast
Protocol: Another study was conducted to measure the cytotoxic effect of the RGS2 inhibitor. The growth reduction feature of direct RGS2 inhibitors was examined within the National Cancer Institute single high dose panel established that the drug was cytotoxic across a variety of cancers. Spanning across 60 standard cancer cell lines, this cytotoxicity assessment measured anti-proliferative activity within the following cancer types, with numerous subtypes below them: leukemia, non-small cell lung cancer, colon cancer, central nervous system cancer, melanoma, ovarian cancer, renal cancer, prostate cancer, and breast cancer.
The NCI 60 Cell One-Dose Screen is a standardized test carried out by National Cancer Institute, where a compound is tested at an initial single high dose (10^−5 M) across the full NCI 60 cell panel. Once a compound is assessed to be effective against a standard threshold number of cell lines, the compound is progresses to a full five-dose screen to determine anti-proliferative capability. This assay is ran relative to parallel studies with a no-drug control and at time zero number of cells.

[2] = target: RGS2-Galpha-q interaction (Homo sapiens (Human), UniProt P41220); test: NanoBit RGS/Gα cell-based protein-protein interaction assay, RGS2; conditions: for Selectivity: RGS4 IC50/RGS2 IC50; for IC50: inhibition of RGS2-Galpha-q interaction, read-out: RGS2 IC50 μM (95% Cl)
Sequence of RGS2-Galpha-q interaction (P41220 whole entry): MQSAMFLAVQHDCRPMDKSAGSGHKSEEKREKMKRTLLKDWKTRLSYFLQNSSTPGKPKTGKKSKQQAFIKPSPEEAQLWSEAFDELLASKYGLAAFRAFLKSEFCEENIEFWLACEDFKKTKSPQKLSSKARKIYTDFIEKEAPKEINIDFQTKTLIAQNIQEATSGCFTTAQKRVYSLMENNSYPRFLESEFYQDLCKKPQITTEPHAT
Protocol: as §1, §2

[3] = tested on: LNCaP prostate cancer cell line; test: Wound healing (scratch) migration assay; format: cell-based, human; conditions: 1 μM, more potently at 2 μM and higher
Protocol: It has previously been shown that RGS2 gene expression in the human prostate cancer cells LnCap were downgraded by infection with small hairpin RNA (shRNA) targeting the RGS2 gene (henceforth “shRGS2”). These shRGS2 LnCap cells expressed lower levels of RGS2 protein compared to the non-infected control, leading to a reduction in RGS2 activity.
Metastatic evaluation was carried out by a wound healing assay. A wound healing assay measures cell migration of individual cells, cell sheets, and clusters from one location to another. A single mechanical laceration was made on a 12-well plate growing a cancer cells monolayer that was grown overnight, and the cells were allowed to regrow across the inclusion over the span of 48 hours. Results were recorded between the knockdown shRGS2 and control in values of the closure % as the wound healing took place at 24 hour and 48 hour time points (FIG. 3). Results for the RGS2 inhibitor treated cells were recorded as pictures taken at 5 separate time points every 24 hours (FIG. 4A-H).

Sequence of RGS4-Galpha-q interaction (P49798 whole entry): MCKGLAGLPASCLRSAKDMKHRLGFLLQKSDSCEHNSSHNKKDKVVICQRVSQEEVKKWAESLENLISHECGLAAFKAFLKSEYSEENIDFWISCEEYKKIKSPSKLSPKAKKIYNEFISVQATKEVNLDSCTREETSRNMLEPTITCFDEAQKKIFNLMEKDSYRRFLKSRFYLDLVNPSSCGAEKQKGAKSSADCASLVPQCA

Nc1nc2c(nc(NCCCN3CCOCC3)n2[C@H]2O[C@@H](CO)[C@H](O)[C@@H]2O)c(=O)[nH]1 [AJ-1]
IC50 [1]: 10.1 µM | cytotoxic effect across cancer types (NCI 60 cell panel): cytotoxic effect against all aforementioned cancers except prostate, ovarian, and colon cancer | Selectivity [2]: 289 | IC50 [2]: 0.04 µM

Cc1ccc([C@@H](C(=O)NC2CCCCC2)N(Cc2ccccc2Cl)C(=O)c2ccc(CN3CCOCC3)o2)o1 [AJ-4]
IC50 [1]: 25 µM | cytotoxic effect across cancer types (NCI 60 cell panel): strong cytotoxic effect against the full list of cancers | Selectivity [2]: 1.81 | IC50 [2]: 13.8 µM

Cc1cc(C)c2[nH]c(=O)c([C@@H](c3nnnn3Cc3ccc4c(c3)OCO4)N3CCN(C)CC3)cc2c1 [AJ-5]
IC50 [1]: 23 µM | Selectivity [2]: 1.53 | IC50 [2]: 15 µM

Cc1cccc2cc([C@H](c3nnnn3Cc3ccc4c(c3)OCO4)N3CCN(C)CC3)c(=O)[nH]c12 [AJ-6]
IC50 [1]: ~9.6 µM | Selectivity [2]: 0.48 | IC50 [2]: 19.8 µM

COCc1ccc2[nH]c(=O)c(C(c3nnnn3C[C@H]3CCCO3)N3CCN(Cc4ccccc4)CC3)cc2c1 (stereo partly drawn) [AJ-10]
activity towards RGS4 ([1]; result in words): no apparent activity towards RGS4 | cytotoxic effect across cancer types (NCI 60 cell panel): strong cytotoxic effect against the full list of cancers | IC50 [2]: 78 µM

Cc1onc(C(=O)NNC(=O)Nc2ccc(Cl)cc2)c1C(=O)N1CCN(C(c2ccccc2)c2ccccc2)CC1 [AJ-3]
migration of LNCaP cells [3]: inhibited the migration ability | IC50 [1]: 21 µM | cytotoxic effect across cancer types (NCI 60 cell panel): strong cytotoxic effect against the full list of cancers | Selectivity [2]: 4.25 | IC50 [2]: 4.94 µM

COc1ccc(Cn2nnnc2[C@H](c2cc3cc(C)ccc3[nH]c2=O)N2CCN(C3CCCCC3)CC2)cc1 [AJ-2]
IC50 [1]: 18.8 µM | Selectivity [2]: 13 | IC50 [2]: 1.45 µM

Cc1cc(C)c2[nH]c(=O)c(C(c3nnnn3Cc3ccc(F)cc3)N3CCN(C4CCCCC4)CC3)cc2c1 (stereo not drawn) [AJ-9]
IC50 [1]: 91 µM | cytotoxic effect across cancer types (NCI 60 cell panel): strong cytotoxic effect against the full list of cancers | Selectivity [2]: 2.72 | IC50 [2]: 33.5 µM

CCc1ccc2[nH]c(=O)c(C(c3nnnn3Cc3ccc(F)cc3)N3CCN(C4CCCCC4)CC3)cc2c1 (stereo not drawn) [AJ-8]
IC50 [1]: 9.6 µM | cytotoxic effect across cancer types (NCI 60 cell panel): strong cytotoxic effect against the full list of cancers | Selectivity [2]: 0.29 | IC50 [2]: 33.1 µM

Cn1c(=O)c2c(nc(NCc3ccccc3)n2C[C@H](O)CN2CCN(Cc3ccccc3)CC2)n(C)c1=O [AJ-7]
IC50 [1]: 14.1 µM | Selectivity [2]: 0.51 | IC50 [2]: 27.6 µM
